From patent publication US20160128952A1, “Pharmaceutical Combination” (Gruenenthal GmbH, priority 2006, published 2016)

Test system: inflammatory pain
Assay: Randall-Selitto test in rats (carrageenin-induced paw oedema, pressure pain)
Type: in vivo, rat
Experimental: The weight ratios of the components (a) and (b) that will lead to a supra-additive effect (synergistic effect) of the inventive pharmaceutical composition may be determined via the test of Randall and Selitto as described in Arch. Int. Pharmacodyn., 1957, 111: 409 to 419, which is a model for inflammatory pain. The respective part of the literature is hereby incorporated by reference and forms part of the present disclosure.
By means of injection of 0.1 ml of Carrageenin-suspension ventrally into a hind paw of a rat an oedema is induced, on which pain is generated 4 hours later by continuously increasing pressure with a stamp (2 mm tip diameter). The antinociceptive and antihyperalgesic activity of the tested substance is determined at different points in time after administration of the substance. The measured value to be determined and at the same time also the end point of the pain test is the pressure at which the vocalisation reaction of the rat occurs. The percentage maximum possible effect (%MPE) is calculated. The maximum pressure of the stamp is 250 g. The group size is n=10.
The interactions studies presented herein were performed using equieffective doses of the two components, calculated from the ratio of the respective ED50 values of the components if administered alone. […]

Row | Structure (SMILES) | analgesic effect (in words) (Paracetamol alone, i.p.) | ED50 (Rattus norvegicus, iv, 0.25 h, i.v., 15 min p. appl. (peak effect), %MPE, vocalisation pressure, n=10, read-out: ED50 (confidence interval) of A applied alone) [mg/kg]
1 | CC(=O)Nc1ccc(O)cc1 [Paracetamol] | dose-dependent analgesic effect | 
2 | CC[C@@H](c1cccc(O)c1)[C@@H](C)CN(C)C [A, (1R,2R)-3-(3-Dimethylamino-1-ethyl-2-methyl-propyl)-phenol] |  | 1.88
